The experiment concerns the target GpIIb/IIIa receptor (Homo sapiens, UniProt P05106+P08514). As to the kind of experiment: GpIIb/IIIa-Fibrinogen-Elisa (inhibition of fibrinogen-GpIIb/IIIa interaction). Conditions: 1 hour incubation, optical density at 405 nm. The experiment is classed as binding. The protocol: Microtitre plates are coated overnight with 2 μg/ml isolated activated GpIIb/IIIa receptor. After removing the unbound receptor by washing several times, the surface of the plates is blocked with 1% casein and washed again. The test substance is added in the required concentrations and the plates are incubated for 10 minutes while shaking. The natural ligand of the gpIIb/IIIa receptor, fibrinogen, is added. After 1 hour of incubation the unbound fibrinogen is removed by washing several times and the bound fibrinogen is determined by a peroxidase-conjugated anti-fibrinogen monoclonal antibody by measuring the optical density at 405 nm in an ELISA instrument. Inhibition of a fibrinogen-GpIIb/IIIa interaction results in a low optical density. An IC50 is calculated based on a concentration-effect curve.
The GpIIb/IIIa-Fibrinogen-Elisa is a modification of assays described in the following literature:
Nachman, R. L. & Leung, L. L. K. (1982): Complex formation of platelet membrane glycoproteins IIb and IIIa with fibrinogen. J. Clin. Invest. 69:263-269. Wright, P. S. et al. (1993): An echistatin C-terminal peptide activated GpIIbIIIa binding to fibrinogen, fibronectin, vitronectin and collagen type I and type IV. Biochem. J. 293:263-267.

The mark [1] stands for this setting: isolated activated GpIIb/IIIa receptor on microtitre plates, read-out: IC50.

Read-outs that look alike come from different tables or passages of the source.

GpIIb/IIIa receptor, sequence (P08514 32-887 limits assumed): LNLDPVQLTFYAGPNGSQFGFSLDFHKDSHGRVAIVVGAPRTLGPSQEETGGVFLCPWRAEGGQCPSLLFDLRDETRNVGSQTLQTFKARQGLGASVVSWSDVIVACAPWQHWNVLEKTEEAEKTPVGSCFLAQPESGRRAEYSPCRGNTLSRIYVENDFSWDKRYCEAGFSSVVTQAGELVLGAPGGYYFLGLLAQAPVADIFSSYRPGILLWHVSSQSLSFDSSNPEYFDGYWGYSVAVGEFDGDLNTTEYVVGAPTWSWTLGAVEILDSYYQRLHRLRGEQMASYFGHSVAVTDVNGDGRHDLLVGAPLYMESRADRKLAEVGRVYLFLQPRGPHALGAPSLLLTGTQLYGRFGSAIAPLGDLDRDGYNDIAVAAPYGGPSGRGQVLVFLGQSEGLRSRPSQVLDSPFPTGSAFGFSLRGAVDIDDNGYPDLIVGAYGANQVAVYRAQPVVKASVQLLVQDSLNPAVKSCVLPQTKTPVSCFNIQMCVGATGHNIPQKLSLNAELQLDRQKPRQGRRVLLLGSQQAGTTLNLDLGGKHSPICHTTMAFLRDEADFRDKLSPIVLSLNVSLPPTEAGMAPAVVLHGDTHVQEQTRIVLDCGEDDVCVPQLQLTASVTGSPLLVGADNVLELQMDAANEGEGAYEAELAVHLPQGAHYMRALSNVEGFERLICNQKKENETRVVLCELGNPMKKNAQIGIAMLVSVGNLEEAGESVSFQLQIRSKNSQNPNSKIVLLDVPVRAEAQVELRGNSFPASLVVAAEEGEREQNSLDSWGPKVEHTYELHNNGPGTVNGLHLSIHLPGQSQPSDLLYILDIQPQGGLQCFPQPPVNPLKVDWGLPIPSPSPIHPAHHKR
GpIIb/IIIa receptor, sequence (P08514 891-1039 limits assumed): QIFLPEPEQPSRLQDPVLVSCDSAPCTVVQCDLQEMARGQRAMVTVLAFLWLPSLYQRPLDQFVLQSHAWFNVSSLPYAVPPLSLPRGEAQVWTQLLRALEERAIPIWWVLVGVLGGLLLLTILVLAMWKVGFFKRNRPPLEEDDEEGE
GpIIb/IIIa receptor, sequence (P05106 27-788): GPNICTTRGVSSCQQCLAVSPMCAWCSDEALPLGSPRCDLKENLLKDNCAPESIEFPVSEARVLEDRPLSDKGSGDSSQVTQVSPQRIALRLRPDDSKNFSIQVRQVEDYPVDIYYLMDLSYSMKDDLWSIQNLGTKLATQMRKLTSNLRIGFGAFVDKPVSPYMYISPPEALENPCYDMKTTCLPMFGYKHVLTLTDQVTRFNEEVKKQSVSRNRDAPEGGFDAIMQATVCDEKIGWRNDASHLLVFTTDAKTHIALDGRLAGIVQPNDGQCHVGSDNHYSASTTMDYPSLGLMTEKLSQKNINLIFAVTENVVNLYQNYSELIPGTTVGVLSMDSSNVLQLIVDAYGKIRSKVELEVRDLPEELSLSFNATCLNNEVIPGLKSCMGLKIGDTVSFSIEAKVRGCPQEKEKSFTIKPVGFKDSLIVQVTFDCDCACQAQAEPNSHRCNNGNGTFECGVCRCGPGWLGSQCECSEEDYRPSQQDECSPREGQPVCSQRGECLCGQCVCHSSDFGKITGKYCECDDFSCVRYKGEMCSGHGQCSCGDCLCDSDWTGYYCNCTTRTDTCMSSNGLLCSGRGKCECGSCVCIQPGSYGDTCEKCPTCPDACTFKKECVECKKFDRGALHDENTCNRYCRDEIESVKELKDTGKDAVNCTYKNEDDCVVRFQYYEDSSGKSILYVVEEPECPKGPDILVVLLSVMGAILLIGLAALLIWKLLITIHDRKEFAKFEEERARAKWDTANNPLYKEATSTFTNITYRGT

Take `O=C(O)CC1(O)CCC(N2CCC(CCCNc3ccncc3)CC2)CC1` (stereo not shown) [12 (page 35), (1-Hydroxy-4-{4-[3-(pyridin-4-ylamino)-propyl]-piperidin-1-yl}-cyclohexyl)-acetic acid]: the IC50 (commonly the concentration needed to halve the response being measured) under setting [1] stood at 0.2 µM.
Same read-out and setting: under “(4-{3-[(Pyridin-4-ylamino)-propyl]-piperidin-1-yl}-cyclohexyl)-acetic acid [62 (page 40)]” stands 0.3 µM.
Take `O=C(O)CC1(O)CCC(N2CCN(c3ccncc3)CC2)CC1` (stereo not drawn) [cis-1-hydroxy-4-[4-(4-pyridyl)-piperazin-1-yl]-acetic acid, reference compound]: the IC50 (reference substance, isolated activated GpIIb/IIIa receptor, read-out: IC50 value in the above assay (comparative experiments)) is 2.5 µM.
Consider `O=C(O)CC1(O)CCC(N2CCC(Nc3ccncc3)CC2)CC1` (stereo not shown) [Example 5], for which, under setting [1], the IC50 is 0.14 µM.

These data come from US5786371A, “Pyridine and pyridazine derivatives, processes for the production thereof and pharmaceutical agents containing these compounds” (Boehringer Mannheim GmbH, priority 1995, dated 1998).
